# US11865118B2, “Heterocyclic compounds and their use in preventing or treating bacterial infections” (MUTABILIS, priority 2018, dated 2024)
# Where a name gives a salt, the structure may show the parent alone.
# Tests used:
# Experiment in all cases: MIC of compounds alone, broth microdilution (CLSI)
# Format in all cases: cell-based
# [1] = tested on: K. pneumoniae KPN 121206; settings: Klebsiella pneumoniae, KPN121206, substance alone, SHV-1, NDM-1
# Experimental: (§1) Compounds of the present invention were assessed against genotyped bacterial strains alone or in combination with the β-lactam ceftazidime.
# [2] = tested on: E. cloacae ECL P99; settings: Enterobacter cloacae, ECLP99, substance alone, AmpC
# Experimental: as §1
# [3] = tested on: E. coli ECO UFR39; settings: Escherichia coli, ECOUFR39, substance alone, CTX-M-15, NDM-1
# Experimental: as §1
# [4] = tested on: P. aeruginosa PAE UFR49; settings: Pseudomonas aeruginosa, PAEUFR49, substance alone, VIM-2
# Experimental: as §1
# [5] = tested on: E. coli ECO 190317; settings: Escherichia coli, ECO190317, substance alone, TEM-1, SHV-12, CTX-M-15, OXA-1
# Experimental: as §1
# [6] = tested on: P. aeruginosa PAE UFR92; settings: Pseudomonas aeruginosa, PAEUFR92, read-out: MIC alone PAE UFR92
# Experimental: as §1
# [7] = tested on: P. aeruginosa PAE 107051; settings: Pseudomonas aeruginosa, PAE107051, substance alone, TEM-24, OXA-1
# Experimental: as §1
# [8] = tested on: P. aeruginosa PAE 105250 (AH); settings: Pseudomonas aeruginosa, substance alone, OXA-15
# Experimental: as §1
Compound,MIC [1] [µg/mL],MIC [2] [µg/mL],MIC [3] [µg/mL],MIC [4] [µg/mL],MIC [5] [µg/mL],MIC [6] [µg/mL],MIC [7] [µg/mL],MIC [8] [µg/mL]
CC(=O)Nc1nc2c(s1)C1CN(C2)C(=O)N1OS(=O)(=O)[O-].[Na+] (stereo not drawn) [Example 6],> 32,16,4,> 32,2,> 32,> 32,> 32
CCOC(=O)[C@@H]1c2c(-c3ccc(F)cc3)csc2[C@@H]2CN1C(=O)N2OS(=O)(=O)[O-].[Na+] [Example 8],> 32,> 32,> 32,> 32,> 32,> 32,> 32,> 32
NCc1nc2c(s1)C1CN(C2)C(=O)N1OS(=O)(=O)O (stereo not drawn) [Example 4],32,1,0.25,32,0.25,32,> 32,32
"CC(C)(O/N=C(\C(=O)N[C@@H]1C(=O)N2C(C(=O)[O-])=C(C[n+]3ccccc3)CS[C@H]12)c1csc(N)n1)C(=O)O [CAZ, ceftazidime]",> 256,128,> 256,64,128,32,256,256
O=C1N2Cc3ccsc3C(C2)N1OS(=O)(=O)[O-].[Na+] (stereo not drawn) [Example 7],> 32,8,4,> 32,2,> 32,> 32,> 32
"N=C(N)NCCNC(=O)c1nc2c(s1)C1CN(C2)C(=O)N1OS(=O)(=O)O (stereo not drawn) [Example 3, [2-(2-quanidinoethylcarbamoyl)-5,8-methano-6-oxo-4,8-dihydrothiazolo[4,5-e][1,3]diazepin-7-yl]sulfonic acid]",16,0.5,2,16,0.5,8,4,8
"CN(C)C(=O)[C@H]1c2nc(C(=O)NCCNC(=N)N)sc2[C@@H]2CN1C(=O)N2OS(=O)(=O)O (relative stereo) [Example 9, [trans-4-(dimethylcarbamoyl)-2-(2-guanidinoethylcarbamoyl)-5,8-methano-6-oxo-4,8-dihydrothiazolo[4,5-e][1,3]diazepin-7-yl] hydrogen sulfate]",> 32,> 32,> 32,4,32,32,8,8
O=C(Nc1nc2c(s1)C1CN(C2)C(=O)N1OS(=O)(=O)[O-])OCc1ccccc1.[Na+] (stereo not drawn) [Example 5],> 32,> 32,> 32,> 32,> 32,> 32,> 32,> 32
N=C(N)NCc1nc2c(s1)C1CN(C2)C(=O)N1OS(=O)(=O)O (stereo not drawn) [Example 2],> 32,1,0.125,4,0.063,4,2,4
"NCCNC(=O)c1nc2c(s1)C1CN(C2)C(=O)N1S(=O)(=O)O (stereo not drawn) [Example 1, [2-(2-aminoethylcarbamoyl)-5,8-methano-6-oxo-4,8-dihydrothiazolo[4,5-e][1,3]diazepin-7-yl]sulfonic acid]",32,2,0.5,16,0.25,8,8,8
"CN(C)C(=O)[C@@H]1c2c(CCNC(=N)N)csc2C2CN1C(=O)N2OS(=O)(=O)O (stereo in doubt) [Example 11, [(trans-4-(dimethylcarbamoyl)-3-(2-quanidinoethyl)-5,8-methano-6-oxo-4,8-dihydrothieno[2,3-e][1,3]diazepin-7-yl] hydrogen sulfate]",> 32,16,> 32,4,4,8,4,4
"CN(C)C(=O)[C@@H]1c2c(CNC(=N)N)csc2[C@H]2CN1C(=O)N2OS(=O)(=O)O.O=C(O)C(F)(F)F (relative stereo) [Example 10, [N-[[trans-4-(dimethylcarbamoyl)-5,8-methano-6-oxo-7-sulfooxy-4,8-dihydrothieno[2,3-e][1,3]diazepin-3-yl]methyl]carbamimidoyl]ammonium 2,2,2-trifluoroacetate]",32,16,32,8,2,8,4,8
